Data set [1] addresses T1, AFF4-CCNT1 interaction (GST-CCNT1 AA 1-300 and biotin-AFF4 peptide AA 32-67) (Homo sapiens, UniProt O60563).
T1 construct: Recombinant GST-CCNT1 (1-300), which was purified by Glutathione Superflow Agarose from Rosetta cells; VCPBIO (peptide synthesis) Addgene P#432; host or cells: Rosetta cells
As to the kind of experiment: AlphaLISA assay of the AFF4-CCNT1 interaction (Alpha Screen). It is filed as binding. The text has this:
FIG. 1. Peptidomimetic identification of disruptors of the AFF4-CCNT1 interaction within the Super Elongation Complex. (A) Schematic for the identification of small molecule inhibitors of the AFF4-CCNT1 interaction using in silico high-throughput screening. Compounds from the ZINC database were docked with the AFF4-CCNT1 structure (4IMY) using a three-tier glide-docking algorithm, which led to 40 candidates. Residues forming the deep binding pocket of CCNT1 are labeled orange and residues of the AFF4 peptide are labeled red. (B) Validation screening identified KL-1 as a potential SEC disruptor using AlphaLISA screening. GST-CCNT1 (AA 1-300) and biotin-labeled AFF4 peptide (AA 32-67) were used to measure the AFF4-CCNT1 interaction with the AlphaLISA assay. (C) Similarity search for KL-1-like molecules identified KL-2. The peptidomimetic potential of KL-1 and KL-2 can be seen by overlaying them with the AFF4 peptide LFAEP structure. (D) Dose-dependent inhibition of KL-1 and KL-2 on AFF4-CCNT1 interaction. The Ki constants of both compounds were measured with the AlphaLISA assays. (E) Treatment of HEK293T cells with KL-1 and KL-2 results in reduced protein levels of SEC components AFF1 and AFF4 but not CDK9 or CCNT1. HEK293T cells were treated with 20 μM of SEC inhibitors KL-1 or KL-2 for 6 hr. 5 μl, 10 and 20 μl cell lysates were loaded and the protein levels of AFF1, AFF4, CCNT1, CDK9 and Tubulin (load control) were determined by western blotting.
FIG. 8, related to FIG. 1. Peptidomimetic identification of disruptors of the AFF4-CCNT1 interaction within the Super Elongation Complex. (A) Schematic of AlphaLISA assay of the AFF4-CCNT1 interaction. Anti-GST AlphaLISA acceptor beads and AlphaScreen streptavidin donor beads (Perkin Elmer) were used to detect the interaction of GST-CCNT1 (AA1-300) and biotin-AFF4 (AA32-67). (B-C) Optimization of the AlphaLISA assay with various biotin-AFF4 peptide and GST-CCNT1 concentrations. No CCNT1 (B) and mutant AFF4 (C) were used as negative controls. Data are represented as Mean+/−SD. (D) Scheme for chemical synthesis of SEC inhibitors KL-1 and KL-2. Reagents and conditions: a. LDA, THF, −78° C., 15 min., then diethyl oxalate, −78° C. to room temperature. b. NaOH, THF/H2O, room temperature, 15 min. c. EEDQ, 5-chloro-2-methylaniline, THF, room temperature, 24 hr. […] 293T cells were treated with 20 μM of KL-1 or KL-2 for 6 hr, and the protein levels of BRD2, BRD4, Pol II (RPB1), SPT5, MED26, MYC, HSP90 (load control) and Tubulin (load control) were measured by western blotting. (F) Treatment of HCT-116 cells with KL-1 and KL-2 reduced protein levels of SEC components AFF1 and AFF4 but not CDK9 or CCNT1. HCT-116 cells were treated with 20 μM of KL-1 or KL-2 for 6 hr, and the protein levels of AFF1, AFF4, CCNT1, CDK9 and Tubulin (load control) were determined by western blotting. (G-H) Treating cells with KL-1 and KL-2 results in reduced levels of AFF 1 and AFF4. FLAG-AFF1 (G) and FLAG-AFF4 (H) were expressed under the Tet-inducible promoter in HEK293T cells. Cells were treated with 20 μM of the indicated inhibitors for 6 hr for western blotting. […] RNA-seq was performed in HEK293T cells treated for 12 hr with 20 μM of the indicated inhibitors. The log2CPM (counts per million) of the SEC subunits were calculated with HTseq. KL-1 and KL-2 had no significant effects on CCNT1, CDK9 and AFF1 expression, but modest increases in the mRNA levels of AFF4 and ELL2 were observed (n=3). Unpaired two-way ANOVA was used for the statistical testes. **,p<0.05, ***,p<0.001.
To test if candidate compounds can disrupt the AFF4-CCNT1 interaction in vitro, we established and optimized a bead-based AlphaLISA assay with recombinant CCNT1 (1-300) protein and synthesized Biotin-AFF4 peptides (AA 32-67) (FIGS. 8A, 8B and 8C).
AlphaLISA Assay. The interaction of CCNT1-AFF4 was measured by Perkin Elmer's bead-based AlphaLISA assays. […]
In general terms: In Alpha technology, singlet oxygen from a donor bead excites a nearby acceptor bead.

Data set [2] in a line: Toxicity test in mice (body weight, sickness). It is filed as in vivo. Conditions: 5 doses of 10 mg/kg, monitored 35 days. On the procedure:
FIG. 14, related to FIG. 7. SEC disruptors delay tumor progression and improve survival of MDA231-LM2 tumor mice. (A) KL-1 and KL-2 inhibit the colony formation of MDA231-LM2 cells in vitro. 5×10^3 MDA231-LM2 cells were seeded in 6-well plates and treated with KL-1 or KL-2 at the indicated doses for 5 days. Crystal violet staining was performed to stain the colonies. (B) KL-1 and KL-2 induce apoptosis in MDA231-LM2 cells. Bar graph depiction of Annexin V positive MDA231-LM2 cells after 24 hr of KL-1 and KL-2 treatments at the indicated concentrations. Data are represented as Mean+/−SD. […] Each individual line indicates the weights of each mouse during toxicity test.

Where only a bound is given, the exact number is not on record here.

This is an account of results in patent US11453640B2, “Small molecules for disrupting the super elongation complex and inhibiting transcription elongation for cancer therapy” (NORTHWESTERN UNIVERSITY, priority 2018, dated 2022).

T1 sequence (O60563 1-300): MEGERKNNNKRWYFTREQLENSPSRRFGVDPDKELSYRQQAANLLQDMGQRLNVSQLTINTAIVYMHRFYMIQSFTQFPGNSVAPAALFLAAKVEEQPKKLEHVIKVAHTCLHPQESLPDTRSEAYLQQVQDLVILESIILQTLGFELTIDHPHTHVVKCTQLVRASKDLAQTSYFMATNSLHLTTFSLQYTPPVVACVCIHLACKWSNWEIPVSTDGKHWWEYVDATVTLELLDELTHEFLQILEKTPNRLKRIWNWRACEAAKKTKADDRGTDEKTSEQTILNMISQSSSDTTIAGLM

On to `Cc1ccc(Cl)cc1NC(=O)C(=O)CC(=O)c1ccc(F)cc1` [KL-2, N-(5-chloro-2-methylphenyl)-4-oxo-(4-fluorophenyl)-2-oxobutanamide], for which the Ki in data set [1] (AlphaLISA, IC50 converted to Ki with the Cheng and Prusoff equation, read-out: Ki, inhibition of the AFF4-CCNT1 interaction) came out at 1.5 µM. In data set [2] (intraperitoneal), the “weight loss in mice” value is “does not result in significant weight loss”. Also, the “sign of sickness in mice” value in data set [2] is given as “no obvious sign of sickness was observed”.

For the compound `Cc1nccnc1NC(=O)C(=O)CC(=O)c1ccc(F)cc1` [NUCC-0201596], in data set [1], the IC50 was at least 30 µM.

As to `O=C(CC(=O)c1ccc(F)cc1)C(=O)NCc1ccccc1` [NUCC-0201688], the IC50 in data set [1] was at least 30 µM.

Compound `O=C(CC(=O)c1ccc(F)cc1)C(=O)NCc1ccncc1` [NUCC-0201689] displayed an IC50 in data set [1] of at least 30 µM.

Consider `O=C(CC(=O)c1ccc(F)cc1)C(=O)Nc1nn[nH]n1` [NUCC-0201690], for which the IC50 in data set [1] came to 9.88 ± 0.6 µM.

Take `Cc1nc(NC(=O)C(=O)CC(=O)c2ccc(F)cc2)no1` [NUCC-0201691]: the IC50 in data set [1] was at least 60 µM.

In the case of `O=C(CC(=O)c1ccc(F)cc1)C(=O)Nc1nccs1` [NUCC-0201692], the IC50 in data set [1] is 20.8 ± 4.2 µM.

`O=C(CC(=O)c1ccc(F)cc1)C(=O)Nc1cncc(F)c1` [NUCC-0201693] had an IC50 in data set [1] of 7.42 ± 0.26 µM.

Consider `COc1cccc(C(=O)CC(=O)C(=O)Nc2ccc(F)c(F)c2)c1` [NUCC-0201921], for which it took 17.4 µM to reach half-maximal inhibition in data set [1] (IC50).

`COc1cc(NC(=O)C(=O)CC(=O)c2cccc(OC)c2)cc(OC)c1` [NUCC-0201922] yielded an IC50 in data set [1] of 14.3 µM.

The compound `COc1cccc(C(=O)CC(=O)C(=O)Nc2ccc(Cl)c(Cl)c2)c1` [NUCC-0201923] showed an IC50 in data set [1] of 12.8 µM.

As for `COc1cccc(C(=O)CC(=O)C(=O)Nc2ccc(F)cc2)c1` [NUCC-0201924], the IC50 in data set [1] is 20 µM.

As to `COc1cccc(C(=O)CC(=O)C(=O)Nc2cccc(Cl)c2)c1` [NUCC-0201925], the IC50 in data set [1] stood at 14.4 µM.

As to `COc1cccc(C(=O)CC(=O)C(=O)Nc2cc(C(=O)O)ccc2C)c1` [NUCC-0201926], the IC50 in data set [1] is 15.2 ± 8 µM.

`COc1cccc(C(=O)CC(=O)C(=O)Nc2cncnc2C)c1` [NUCC-0201927] came in with an IC50 in data set [1] of 17.9 ± 2.4 µM.

As to `COc1cccc(C(=O)CC(=O)C(=O)Nc2cccc(OC)c2C)c1` [NUCC-0201929], in data set [1], the IC50 stood at 15.7 µM.

`COc1cccc(NC(=O)C(=O)CC(=O)c2ccc(F)cc2)c1C` [NUCC-0202067] registered an IC50 in data set [1] of 21.3 ± 3.1 µM.

Turning to `O=C(CC(=O)c1ccc(F)cc1)C(=O)Nc1cccc(Cl)c1` [NUCC-0202068], the IC50 in data set [1] was 11.4 ± 0.9 µM.

In data set [1], `O=C(CC(=O)c1ccc(F)cc1)C(=O)NC1CCCC1` [NUCC-0202069] showed an IC50 of at least 60 µM.

In data set [1], `Cc1ccccc1NC(=O)C(=O)CC(=O)c1ccc(F)cc1` [NUCC-0202092] yielded an IC50 of 14.8 ± 2 µM.

The compound `Cc1ccc(Cl)cc1NC(=O)[C@@H](O)CC(=O)c1ccc(F)cc1` [NUCC-0202170] returned an IC50 in data set [1] of 30.6 ± 1.4 µM.

Regarding `CN1CC[C@H](c2c(O)cc(O)c3c(=O)cc(-c4ccccc4Cl)oc23)[C@H](O)C1` [flavopiridol, reference compound], the “disruption of the AFF4-CCNT1 interaction” value in data set [1] (tested at 20 μM) was “neither the pan-CDK9 kinase inhibitor flavopiridol nor the BET domain inhibitors disrupted the AFF4-CCNT1 interaction”.

Usually Ki stands for a dissociation constant, usually derived from enzyme kinetics or from competition with a known ligand. Usually IC50 stands for the midpoint of a concentration-inhibition curve.
